Laboratory results: US7705040B2, “Reagents for highly specific detection of peroxynitrite” (The University of Hong Kong, priority 2005, dated 2010)

How the values were obtained:
[1] = Specificity of probe with different reactive oxygen species: fluorescence change with ONOO−
Protocol: (§1) Compound ss-6 obtained in Example 1 was dissolved in CH3CN to a concentration of 2 mM, and then the solution was added a 100 mM sodium phosphate buffer (pH 7.4) for dissolution to a final concentration of 20 μM. The excitation spectrum and the fluorescence spectrum of the 20 μM ss-6 solution were measured using a Perkin Elmer LS50 fluorescence spectrometer. Slit width was 5 nm for both the excitation spectrum and the fluorescence spectrum, and the photomultiplier voltage was 775 V. The measurement was carried out at the excitation wavelength of 515 nm. […]
(§2) Compound ss-6 obtained in Example 1 was dissolved in CH3CN to a concentration of 2 mM, and then the solution was added with a 100 mM sodium phosphate buffer (pH 7.4) for dissolution at a final concentration of 20 μM. […] The changes in fluorescence intensity before and after the treatment were measured. The fluorescence intensity was measured under the same conditions as those in Example 2. Each concentration of the fluorescence probe was 20 μM (a 100 mM sodium phosphate buffer, pH 7.4).
(§3) Compound ss-12 obtained in Example 5 was dissolved in CH3CN to a concentration of 2 mM, and then the solution was added with a 100 mM sodium phosphate buffer (pH 7.4) for dissolution at a final concentration of 20 μM. […] The changes in fluorescence intensity before and after the treatment were measured. […]

[2] = Specificity of probe with different reactive oxygen species: fluorescence change with hydroxyl radical; conditions: ss-6 20 μM, phosphate buffer pH 7.4; Fe(ClO4)2 (25 μL, 40 mM) and H2O2 (25 μL, 80 mM)
Protocol: (§4) Compound ss-6 obtained in Example 1 was dissolved in CH3CN to a concentration of 2 mM, and then the solution was added a 100 mM sodium phosphate buffer (pH 7.4) for dissolution to a final concentration of 20 μM. The excitation spectrum and the fluorescence spectrum of the 20 μM ss-6 solution were measured using a Perkin Elmer LS50 fluorescence spectrometer. Slit width was 5 nm for both the excitation spectrum and the fluorescence spectrum, and the photomultiplier voltage was 775 V. The measurement was carried out at the excitation wavelength of 515 nm.
(§5) Compound ss-6 obtained in Example 1 was dissolved in CH3CN to a concentration of 2 mM, and then the solution was added with a 100 mM sodium phosphate buffer (pH 7.4) for dissolution at a final concentration of 20 μM. 50 μL of different reactive oxygen species (10 equiv) were added independently to 5 mL of the corresponding ss-6 solution. The changes in fluorescence intensity before and after the treatment were measured. The fluorescence intensity was measured under the same conditions as those in Example 2. Each concentration of the fluorescence probe was 20 μM (a 100 mM sodium phosphate buffer, pH 7.4).

[3] = Specificity of probe with different reactive oxygen species: fluorescence change with superoxide; conditions: ss-6 20 μM, phosphate buffer pH 7.4; Xanthine Oxidase then Xanthine (50 μL, 20 mM)
Protocol: as §4, §2, §3

[4] = Specific detection of peroxynitrite: fluorescence versus ONOO− concentration; conditions: probe 20 μM, pH 7.4, after 30 mins
Protocol: (§6) Compound ss-6 obtained in Example 1 was dissolved in CH3CN to a concentration of 2 mM, and then the solution was added with a 100 mM sodium phosphate buffer (pH 7.4) for dissolution at a final concentration of 20 μM. Then peroxynitrite was added to final concentrations of 0, 20, 60, 100, 200, 240 and 300 μM, and the fluorescence spectrum was measured after 30 mins. The fluorescence spectrum was measured under the same conditions as those in Example 2.
as §6, with “Compound ss-12” for “Compound ss-6”, “Example 5” for “Example 1”, “Example 6.” for “Example 2.”

[5] = Fluorescence spectrum after reaction of probe with 15 equiv ONOO−; conditions: ss-6 20 μM, 30 min, room temperature, excitation 515 nm, FIG. 9 vs FIG. 8
Protocol: as §1
Subsequently, 15 equiv of ONOO^− solution with different concentration was slowly added to a 20 μM ss-6 solution with vigorous stirring at room temperature. […] The changes in fluorescence intensity were measured after 30 min. The excitation spectrum and the fluorescence spectrum of the solution after the completion of the reaction were measured using the same conditions as described above.
Compound ss-12 obtained in Example 5 was dissolved in CH3CN to a concentration of 2 mM, and then the solution was added a 100 mM sodium phosphate buffer (pH 7.4) for dissolution at a final concentration of 20 μM. The excitation spectrum and the fluorescence spectrum of the 20 μM ss-12 solution were measured using a Perkin Elmer® LS50 fluorescence spectrometer. […]

[6] = Specificity of probe with different reactive oxygen species: fluorescence change with H2O2; conditions: ss-6 20 μM, phosphate buffer pH 7.4; 10 equiv
Protocol: as §4, §2, §3

[7] = Specificity of probe with different reactive oxygen species: fluorescence change with singlet oxygen; conditions: ss-6 20 μM, phosphate buffer pH 7.4; 3-(1,4-dihydro-1,4-epidioxy-1-napthyl)propionic acid at 37° C. (50 μL, 20 mM)
Protocol: as §4, §2, §3

[8] = test system: primary cultured cortex neurons; test: Cell assay: fluorescent microscopy of intracellular ONOO− production after SIN-1; format: cell-based, Sprague-Dawley rats; conditions: probe 20 μM for 15 mins, then 10 and 100 μM SIN-1 for 15 mins; fluorescent microscopy (FIG. 24)
Protocol: Throughout this study, primary cultured cortex neurons were prepared from embryonic day 15 Sprague-Dawley rats. Briefly, dissociated cell suspensions were plated at a density of 2×10^6 cells/well on poly-L-lysine-coated 6-well plates (BD Biosciences, San Diego, Calif., USA) with Neurobasal/2% B27 (Gibco-BRL, Grand Island, N.Y.) containing glutamine (0.5 mM, Sigma Chemical Company, St. Louis, Mo.), penicillin (100 U/mL) and streptomycin (100 μg/mL). The cells were maintained in a humidified incubator at 37° C., in 5% CO2-95% air. On the tenth day, cultured cortical cells were used for experimentation. The primary cultured neuronal cells were incubated with the ss-6 and ss-12 at the concentration of 20 μM for 15 mins and then washed with sodium phosphate buffer (100 mM, pH 7.4) for 3 times. After that, the cells were treated with 10 and 100 μM SIN-1 (3-Morpholino-sydnonimine-HCl) for 15 mins. After washed with sodium phosphate buffer (100 mM, pH 7.4), the cells were observed under fluorescent microscopy.

[9] = Specificity of probe with different reactive oxygen species: fluorescence change with SIN-1; conditions: ss-6 20 μM, 100 mM sodium phosphate buffer pH 7.4; 10 equiv; SIN-1 generates ONOO− slowly in buffer
Protocol: as §4, §5

N,N-diethyl-8-[2-methoxy-(4,4,4-trifluoro-3-oxobutyl)phenyl]-4,4-difluoro-4-bora-3a,4a-diaza-s-indacene-3,5-dicarboxamide [ss-6]
selectivity for peroxynitrite over other reactive oxygen species ([1]; probe 20 μM, phosphate buffer pH 7.4, conclusion from Tables 1 and 2): very high selectivity
changes in fluorescence intensity before and after the treatment, ONOO^− ([1]; ss-6 20 μM, 100 mM sodium phosphate buffer pH 7.4, 10 equiv ROS, excitation 515 nm): 750%
changes in fluorescence intensity before and after the treatment, •OH [2]: 2%
changes in fluorescence intensity before and after the treatment, O2•− [3]: −1%
increase in fluorescence intensity with peroxynitrite ([4]; peroxynitrite 0, 20, 60, 100, 200, 240 and 300 μM): great increase
relationship of fluorescence intensity with the concentration of ONOO− ([4]; peroxynitrite 0-300 μM): good linear relationship
change in fluorescence intensity after reaction with ONOO− [5]: Dramatic increase
changes in fluorescence intensity before and after the treatment, H2O2 [6]: −5%
changes in fluorescence intensity before and after the treatment, 1O2 [7]: 3%
measurement of intracellular ONOO− production [8]: satisfactory results
changes in fluorescence intensity before and after the treatment, SIN-1 [9]: 166%
